Values of other authors, collected in article PMC6500982 (Cancer Science, 2019).
Read-outs that look alike come from different tables or passages of the source.

Test system: ABC DLBCL tumors
Details: cited from earlier work

For C=CC(=O)N1CCC[C@@H](n2nc(-c3ccc(Oc4ccccc4)cc3)c3c(N)ncnc32)C1 [ibrutinib], the “Patients who responded to treatment” value (ABC tumors with B‐cell receptor mutations who also had MYD88 mutations) is given as 80% and the “Patients who responded to treatment” value (ABC tumors with B‐cell receptor mutations) is given as 55.5%.
